Experimental data as given in article PMC12737022, “Evaluations of Sex Differences in Dosimetry in Rats Following Perfluorohexanesulfonamide (PFHxSA) Oral Exposure” (Toxics, 2025).
Several values for one entry are separate records, joined by “and”; a condition that tells them apart may be missing. Equal values may be shown once.

Key:
[1] = Plasma dosimetry of PFHxSA and PFHxS by targeted LC/MS/MS; type: in vivo, rat; settings: for concentration at 24 h: male, Sprague Dawley (Crl:CD(SD)), rat, oral, mean ± SD, read-out: PFHxS Male Plasma Conc.
Description: (§1) The plasma and liver samples for this investigation were provided by Mutlu et al.. The study design, including detailed descriptions of animal handling, procedures for dosing, clinical observations, termination, and collection of tissues, is reported elsewhere and is consistent with the ARRIVE guidelines. Briefly, male and female Sprague Dawley (SD) rats (Crl:CD(SD)) (n = 48/sex, 96 total) were purchased from Charles River Laboratory (Raleigh, NC, USA) and allowed to acclimate for ≥5 days before initial dosing. Rats were 8–10 weeks old at the time of exposure. PFHxSA dosing solutions in corn oil were prepared on Day 0 and used over the course of the study. Rats of both sexes (n = 5/sex, dose, and time point, plus eight vehicle controls per sex) were dosed by oral gavage (5 mL/kg body weight) once daily for five days. […] The formulation concentrations decreased from 100 mg/kg/day at half-log10 intervals until the lowest dose level, which was a full log10 interval below the next higher dose, giving eight dose levels (0.01 to 100 mg/kg/day or 0.025 µmol/kg/day to 250 µmol/kg/day) in addition to vehicle controls. Doses were administered in randomized order within ± 1 h on each day of dosing. […] Rats were euthanized 24 h after the last dose. Blood was collected via cardiac puncture with tripotassium ethylene diamine tetraacetic acid (K3EDTA) as an anti-coagulant and centrifuged to collect cell-free plasma. Liver was collected and flash-frozen in liquid nitrogen. Liver, plasma, and dosing formulation samples were frozen at the USEPA Center for Computational Toxicology and Exposure (CCTE), Durham, NC, USA. Tissue samples (plasma and liver, n = 96 each) were stored at ≤−70 °C prior to extraction; dosing formulation samples (n = 9) were stored at −20 °C.
(§2) Detailed information on solvents and standards used for targeted LC/MS/MS of PFHxSA and PFHxS can be found in SI Text S1 and SI Table S1. Plasma and liver preparations were modified from Conley et al.. Briefly, aliquots of plasma (25 µL) and liver (~10 mg) were spiked with PFOSA as an internal standard, as no isotope-labeled PFHxSA was available. Sample batches included up to 96 samples along with an MB, CCV, and LCS for QC. Commercial plasma (mixed-sex SD rat plasma) and liver (mixed-sex SD rat) were obtained from BioIVT (Westbury, NY, USA). Cold acetonitrile (ACN) with 0.1 M formic acid was used to precipitate proteins. Liver and plasma samples were prepared similarly, except that the livers were homogenized after solvent addition. Plasma samples were vortexed to mix before being chilled at −20 °C, after which samples were centrifuged at 5 °C and 10,000× g. Liver samples were chilled at −80 °C, then homogenized using an Omni International (Kennesaw, GA, USA) Bead Ruptor 24. Liver homogenates were centrifuged at 26,000× g and 5 °C. Supernatants from the extraction of both matrices were removed and stored at −20 °C until analysis. Refer to SI Text S4 for additional experimental details and information on calibration and QC parameters for quantitation of PFHxSA.
(§3) Targeted LC/MS/MS of PFHxSA was performed on a Sciex 4000 QTRAP LC/MS/MS system operated in negative ESI mode with MRM scanning. A Restek (Bellefonte, PA, USA) Raptor Polar X (100 mm × 2 mm, 2.7 µm) column was used for liquid chromatography. Isocratic elution occurred over 10 min with a 30:70 ratio of mobile phase A (10 mM ammonium formate): mobile phase B (60:40 ACN: methanol). Both mobile phases included 0.05% formic acid. The LOQs for PFHxSA were 0.100 µM in plasma and 0.351 µM in liver. Additional details of the instrument method parameters for targeted analysis of PFHxSA are provided in SI Table S5. The MRM transitions for the PFHxSA method are provided in SI Table S6. […]

[2] = Liver dosimetry of PFHxSA and PFHxS by targeted LC/MS/MS; type: in vivo, rat; settings: for PFHxS Male Liver Conc. (wet weight) / PFHxS Female Liver Conc. (wet weight) / concentration at 24 h: individual rats; for PFHxS Male Liver Conc. (wet weight) / concentration at 24 h: male; for concentration at 24 h: Sprague Dawley (Crl:CD(SD)), liver, oral, read-out: PFHxS Male Liver Conc. (wet weight)
Description: as §1, §2, §3

[3] = In vitro-in vivo extrapolation (IVIVE) to estimate Css, human
Description: Intrinsic hepatic clearance (Clint) and fraction unbound in plasma (fup) were calculated from the experimental point estimate data as described in Dobreniecki et al.. Steady-state concentrations (Css) were derived based on zero-order uptake of an assumed daily dose from the gut (assuming 100% intestinal bioavailability) but considering hepatic clearance and non-metabolic renal clearance. Renal clearance was calculated using the glomerular filtration rate (a species-dependent constant) and the fraction unbound in blood (fub), estimated by adjusting the experimental fup for blood/plasma partitioning. The Css calculations, along with underlying species-specific physiologic scalars, are detailed in SI Texts S6 and S7. […]
hepatocytes). In equation (C), the scalar 2000 is used to adjust the assay cell number to be consistent with units of 1 million cells in the Clint equation.
Text S7 In Vitro-In Vivo Extrapolation (IVIVE) Calculations
The pharmacokinetic equation used to estimate expected steady-state concentrations (Css) is based on zero-order uptake of a daily dose from the gut (assuming 100% bioavailability) with both nonmetabolic renal clearance (Clrenal) and hepatic clearance (Clhepatic) (Equation D). The chemical input rate (ko) is the product of the intake dosage and the model body weight; this represents the numerator of Equation D. The Clrenal calculation is shown in the first part of the denominator of Equation D; it is the product of the species-dependent glomerular filtration rate (GFR) and the unbound fraction in blood (fub) of the parent compound. The Clhepatic calculation is shown in the second part of the denominator of Equation D; it is the product of the species-dependent liver blood flow constant, the fub of the parent compound, and the experimentally derived intrinsic clearance (shown in Equation C) divided by the sum of these three values. All values used in Equation D are for first-order conditions of metabolism in the […]

[4] = PFHxSA 10 mg/kg/day oral 5 days
[5] = PFHxSA 30 mg/kg/day oral 5 days
[6] = PFHxSA 100 mg/kg/day oral 5 days

Question: Which results are given for `O=S(=O)(O)C(F)(F)C(F)(F)C(F)(F)C(F)(F)C(F)(F)C(F)(F)F` [PFHxS, perfluorohexane sulfonic acid]?
Answer: Male PFHxS plasma concentrations higher than female at the same dose level ([1]; across the dose range): 4–10 times; Female level of PFHxS lower than males, on average ([1]; doses of 10 mg/kg/day and up, plasma): 5.3 fold; PFHxS lower than PFHxSA in female plasma, on average ([1]; female rats, after oral PFHxSA): 5.3 fold; PFHxS plasma concentrations higher than coincident PFHxSA plasma levels ([1]; male rats, PFHxSA 30 and 100 mg/kg/day): 1.6- to 6 fold; concentration at 24 h ([1]; plasma, PFHxSA 10 mg/kg/day oral 5 days, male rats): 76.9 µM; concentration at 24 h ([1]; plasma, PFHxSA 30 mg/kg/day oral 5 days, male rats): 136 µM; concentration at 24 h ([1]; plasma, PFHxSA 100 mg/kg/day oral 5 days, male rats): 396 µM; Male PFHxS/PFHxSA concentration ratios higher than female ratios ([1]; plasma and liver): approximately 10 fold; PFHxS Male Liver Conc. (wet weight) ([2]; PFHxSA 0.3 mg/kg/day oral 5 days): 2.31 ng/mg and 3.68 µM and 0.95 µM and 2.30 µM and 0.85 µM and 1.47 ng/mg and 0.381 ng/mg and 0.921 ng/mg and 0.340 ng/mg; PFHxS Male Liver Conc. (wet weight) ([2]; PFHxSA 1 mg/kg/day oral 5 days): 2.73 ng/mg (2×) and 2.38 ng/mg and 3.34 µM and 5.56 µM and 6.81 µM (2×) and 5.95 µM and 1.34 ng/mg and 2.23 ng/mg; PFHxS Male Liver Conc. (wet weight) ([2]; PFHxSA 3 mg/kg/day oral 5 days): 4.61 ng/mg and 5.83 ng/mg and 4.92 ng/mg and 3.19 ng/mg and 11.5 µM and 14.6 µM and 12.3 µM and 7.97 µM; PFHxS Female Liver Conc. (wet weight) [2, 4]: 0.301 ng/mg and 0.776 ng/mg and 0.700 ng/mg and 1.18 ng/mg and 1.13 ng/mg and 0.753 µM and 1.94 µM and 1.75 µM and 2.96 µM and 2.81 µM; PFHxS Male Liver Conc. (wet weight) [2, 4]: 8.96 ng/mg and 6.84 ng/mg and 9.88 ng/mg and 7.36 ng/mg and 22.4 µM and 17.1 µM and 24.7 µM and 18.4 µM; PFHxS Female Liver Conc. (wet weight) [2, 5]: 1.72 ng/mg and 2.56 ng/mg and 1.26 ng/mg and 1.35 ng/mg and 2.38 ng/mg and 4.31 µM and 6.39 µM and 3.15 µM and 3.37 µM and 5.96 µM; PFHxS Male Liver Conc. (wet weight) [2, 5]: 16.3 ng/mg and 15.3 ng/mg and 15.2 ng/mg and 24.0 ng/mg and 40.7 µM and 38.2 µM and 38.3 µM and 60.1 µM; PFHxS Female Liver Conc. (wet weight) [2, 6]: 4.16 µM and 2.21 µM and 10.2 µM and 5.79 µM and 2.07 µM and 1.66 ng/mg and 0.885 ng/mg and 4.07 ng/mg and 2.32 ng/mg and 0.826 ng/mg; PFHxS Male Liver Conc. (wet weight) [2, 6]: 67.1 ng/mg and 88.3 ng/mg and 41.9 ng/mg and 34.0 ng/mg and 44.5 ng/mg and 168 µM and 221 µM and 105 µM and 85.1 µM; PFHxS lower than PFHxSA in female liver, on average ([2]; female rats, after oral PFHxSA): 2.9 fold; concentration at 24 h ([2]; rat, PFHxSA 3 mg/kg/day oral 5 days): 3100 ng/g and 7.74 µM; concentration at 24 h ([2]; rat, PFHxSA 10 mg/kg/day oral 5 days): 7940 ng/g and 19.9 µM; concentration at 24 h ([2]; rat, PFHxSA 30 mg/kg/day oral 5 days): 14500 ng/g and 36.2 µM; Male PFHxS liver concentrations versus females at equivalent dose levels ([2]; rat, in vivo): approximately ten-fold greater; Css (steady-state concentration) ([3]; Human, IVIVE-derived, assumes 1 mg/kg/day exposure): 669 µM; CL renal ([3]; Human, non-metabolic, GFR x fub, read-out: Clrenal (renal clearance) (converted)): 0.183 mL/min; Predicted Css in humans higher than rats ([3]; cross-species IVIVE comparison): 3- to 10 fold; IVIVE-derived Css lower for PFHxS compared to PFHxSA ([3]; human): 2.25 fold
